This assay deals with CD2F1 mice, L1210 leukemia ip, survival T/C. Description: NCI In Vivo Anticancer Drug Screen. Data for tumor model L1210 Leukemia (intraperitoneal) in CD2F1 (CDF1) mice. Conditions: higher = longer survival. The method, boiled down:
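Transplantable tumor in mice; compound-treated vs vehicle-treated groups. Read-out = treated/control ratio of the measured endpoint.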

[1] abbreviates: endpoint: mean survival time, dose: 100.0 mg/kg/injection, schedule: Q04DX003 (ip), vehicle: saline with Tween-80.
The mark [2] stands for this setting: endpoint: mean survival time, dose: 200.0 mg/kg/injection, schedule: Q04DX003 (ip), vehicle: saline with Tween-80.
The mark [3] stands for this setting: endpoint: mean survival time, dose: 400.0 mg/kg/injection, schedule: Q04DX003 (ip), vehicle: saline with Tween-80.
[4] abbreviates: endpoint: mean survival time, dose: 100.0 mg/kg/injection, schedule: Q01DX009 (ip), vehicle: saline with Tween-80.
[5] abbreviates: endpoint: mean survival time, dose: 200.0 mg/kg/injection, schedule: Q01DX009 (ip), vehicle: saline with Tween-80.
[6] abbreviates: endpoint: mean survival time, dose: 400.0 mg/kg/injection, schedule: Q01DX009 (ip), vehicle: saline with Tween-80.
Setting [7] is: endpoint: mean survival time, dose: 50.0 mg/kg/injection, schedule: Q01DX009 (ip), vehicle: saline with Tween-80.
The mark [8] stands for this setting: endpoint: mean survival time, dose: 100.0 mg/kg/injection, schedule: Q04DX002 (ip), vehicle: saline with Tween-80.
The mark [9] stands for this setting: endpoint: mean survival time, dose: 200.0 mg/kg/injection, schedule: Q04DX002 (ip), vehicle: saline with Tween-80.
[10] abbreviates: endpoint: mean survival time, dose: 400.0 mg/kg/injection, schedule: Q04DX002 (ip), vehicle: saline with Tween-80.

“And” between values parts separate entries of the source, which are not always exact repeats. Identical values can stand only once. Inconclusive results and toxic doses are left out.

Regarding `Nc1ncnc2c1ncn2C1OC(COP(=O)(O)O)C(O)C1O` (stereo not given), the T/C by setting is: (endpoint: mean survival time, dose: 9.4 mg/kg/injection, schedule: Q03HX016 (ip), vehicle: water) 106 % of control; (endpoint: mean survival time, dose: 9.4 mg/kg/injection, schedule: Q03HX024 (ip), vehicle: water) 109 % of control; (endpoint: mean survival time, dose: 12.5 mg/kg/injection, schedule: Q01DX009 (ip), vehicle: saline) 98 % of control; (endpoint: mean survival time, dose: 12.5 mg/kg/injection, schedule: Q01DX009 (ip), vehicle: water) 103 % of control; (endpoint: mean survival time, dose: 18.8 mg/kg/injection, schedule: Q03HX016 (ip), vehicle: water) 110 % of control; (endpoint: mean survival time, dose: 18.8 mg/kg/injection, schedule: Q03HX024 (ip), vehicle: water) 107 % of control. Further, the T/C reads like this: (endpoint: mean survival time, dose: 25.0 mg/kg/injection, schedule: Q01DX009 (ip), vehicle: saline) 104 % of control; (endpoint: mean survival time, dose: 25.0 mg/kg/injection, schedule: Q01DX009 (ip), vehicle: water) 107 % of control; (endpoint: mean survival time, dose: 27.5 mg/kg/injection, schedule: Q03DX024 (ip), vehicle: saline) 107 % of control; (endpoint: mean survival time, dose: 27.5 mg/kg/injection, schedule: Q04DX003 (ip), vehicle: saline) 105 % of control; (endpoint: mean survival time, dose: 36.7 mg/kg/injection, schedule: Q03DX024 (ip), vehicle: saline) 115 % of control; (endpoint: mean survival time, dose: 36.7 mg/kg/injection, schedule: Q04DX003 (ip), vehicle: saline) 103 % of control. Moreover, the T/C runs as follows: (endpoint: mean survival time, dose: 37.5 mg/kg/injection, schedule: Q03HX016 (ip), vehicle: water) 114 % of control; (endpoint: mean survival time, dose: 37.5 mg/kg/injection, schedule: Q03HX024 (ip), vehicle: water) 113 % of control; (endpoint: mean survival time, dose: 50.0 mg/kg/injection, schedule: Q01DX009 (ip), vehicle: saline) 100 % of control; (endpoint: mean survival time, dose: 50.0 mg/kg/injection, schedule: Q01DX009 (ip), vehicle: water) 109 % of control; (endpoint: mean survival time, dose: 55.0 mg/kg/injection, schedule: Q03DX024 (ip), vehicle: saline) 112 % of control; (endpoint: mean survival time, dose: 55.0 mg/kg/injection, schedule: Q04DX003 (ip), vehicle: saline) 104 % of control. Further, the T/C was 118 % of control (endpoint: mean survival time, dose: 73.3 mg/kg/injection, schedule: Q03DX024 (ip), vehicle: saline); 106 % of control (endpoint: mean survival time, dose: 73.3 mg/kg/injection, schedule: Q04DX003 (ip), vehicle: saline); 115 % of control (endpoint: mean survival time, dose: 75.0 mg/kg/injection, schedule: Q03HX016 (ip), vehicle: water); 118 % of control (endpoint: mean survival time, dose: 75.0 mg/kg/injection, schedule: Q03HX024 (ip), vehicle: water); 102 % of control (endpoint: mean survival time, dose: 100.0 mg/kg/injection, schedule: Q01DX009 (ip), vehicle: saline); 115 % of control (endpoint: mean survival time, dose: 100.0 mg/kg/injection, schedule: Q01DX009 (ip), vehicle: water). Further, the T/C (endpoint: mean survival time, dose: 200.0 mg/kg/injection, schedule: Q01DX009 (ip), vehicle: saline) was 102 % of control and 108 % of control; the T/C (endpoint: mean survival time, dose: 200.0 mg/kg/injection, schedule: Q01DX009 (ip), vehicle: water) is 119 % of control; the T/C (endpoint: mean survival time, dose: 315.0 mg/kg/injection, schedule: Q01DX009 (ip), vehicle: saline) is 106 % of control; the T/C (endpoint: mean survival time, dose: 375.0 mg/kg/injection, schedule: Q03HX024 (ip), vehicle: saline) was 156 % of control; the T/C (endpoint: mean survival time, dose: 400.0 mg/kg/injection, schedule: Q01DX009 (ip), vehicle: saline) was 114 % of control and 102 % of control; the T/C (endpoint: mean survival time, dose: 470.0 mg/kg/injection, schedule: Q01DX009 (ip), vehicle: saline) was 110 % of control. Besides, the T/C is, setting by setting: (endpoint: mean survival time, dose: 700.0 mg/kg/injection, schedule: Q01DX009 (ip), vehicle: saline) 112 % of control; (endpoint: mean survival time, dose: 800.0 mg/kg/injection, schedule: Q01DX009 (ip), vehicle: saline) 122 % of control; (endpoint: median survival time, dose: 20.0 mg/kg/injection, schedule: Q01DX009 (ip), vehicle: water) 102 % of control; (endpoint: median survival time, dose: 40.0 mg/kg/injection, schedule: Q01DX009 (ip), vehicle: water) 105 % of control and 107 % of control; (endpoint: median survival time, dose: 80.0 mg/kg/injection, schedule: Q01DX009 (ip), vehicle: water) 124 % of control and 108 % of control; (endpoint: median survival time, dose: 160.0 mg/kg/injection, schedule: Q01DX009 (ip), vehicle: water) 117 % of control.
For the compound `Cc1cc(=O)cc(C)n1C`, the T/C is, setting by setting: under setting [1], 98 % of control; under setting [2], 97 % of control; under setting [3], 94 % of control.
On to `CC1(C)CCC2(CC1)CC(=O)OC2=O`, for which the T/C by setting is: under setting [4], 109 % of control; under setting [5], 105 % of control; under setting [6], 100 % of control.
With `O=S(=O)(N=N/C=C1\C=CC=CN1O)c1cccs1`, the T/C (endpoint: mean survival time, dose: 12.5 mg/kg/injection, schedule: Q01DX009 (ip), vehicle: saline with Tween-80) is 95 % of control; the T/C (endpoint: mean survival time, dose: 25.0 mg/kg/injection, schedule: Q01DX009 (ip), vehicle: saline with Tween-80) was 101 % of control; the T/C under setting [7] is 103 % of control; the T/C under setting [4] is 109 % of control; the T/C under setting [5] was 104 % of control.
Take `CN(C)N=Nc1ccc(C#N)cc1`: the T/C is, setting by setting: (endpoint: mean survival time, dose: 7.37 mg/kg/injection, schedule: Q01DX009 (ip), vehicle: Klucel (hydroxypropylcellulose) (HPC)) 100 % of control; (endpoint: mean survival time, dose: 14.75 mg/kg/injection, schedule: Q01DX009 (ip), vehicle: Klucel (hydroxypropylcellulose) (HPC)) 100 % of control; (endpoint: mean survival time, dose: 29.5 mg/kg/injection, schedule: Q01DX009 (ip), vehicle: Klucel (hydroxypropylcellulose) (HPC)) 108 % of control; (endpoint: mean survival time, dose: 59.0 mg/kg/injection, schedule: Q01DX009 (ip), vehicle: Klucel (hydroxypropylcellulose) (HPC)) 108 % of control; (endpoint: mean survival time, dose: 118.0 mg/kg/injection, schedule: Q01DX009 (ip), vehicle: Klucel (hydroxypropylcellulose) (HPC)) 120 % of control and 107 % of control.
For `CC12CCC(C(=O)C1)C1(C)CCCC(=O)C21` (stereo not given), the T/C (endpoint: mean survival time, dose: 75.0 mg/kg/injection, schedule: Q01DX001 (ip), vehicle: other) is 97 % of control.
With `CN(C)CC1CCCCC1OC(=O)c1ccccc1` (stereo not given), the T/C was 93 % of control (endpoint: mean survival time, dose: 25.0 mg/kg/injection, schedule: Q04DX003 (ip), vehicle: saline with Tween-80); 97 % of control (endpoint: mean survival time, dose: 50.0 mg/kg/injection, schedule: Q04DX003 (ip), vehicle: saline with Tween-80); 97 % of control under setting [1]; 96 % of control (endpoint: mean survival time, dose: 100.0 mg/kg/injection, schedule: Q04DX003 (ip), vehicle: water).
As to `CN(CCC#N)c1ccc(C(=C2C=CC(=Nc3ccccc3)c3ccccc32)c2ccc(N(C)CCC#N)cc2)cc1`, the T/C under setting [8] was 97 % of control and the T/C under setting [9] is 101 % of control.
Regarding `O=C1C=C(O)c2cc(Br)ccc2C1=O.[Ag]`, the T/C (endpoint: mean survival time, dose: 25.0 mg/kg/injection, schedule: Q04DX002 (ip), vehicle: saline) is 106 % of control; the T/C (endpoint: mean survival time, dose: 50.0 mg/kg/injection, schedule: Q04DX002 (ip), vehicle: saline) was 113 % of control; the T/C (endpoint: mean survival time, dose: 100.0 mg/kg/injection, schedule: Q04DX002 (ip), vehicle: saline) was 97 % of control.
Turning to `COC(=O)C(C(=O)OC)c1ccc(C)c(OC)c1`, the T/C under setting [4] was 97 % of control; the T/C under setting [1] is 104 % of control; the T/C under setting [5] was 98 % of control; the T/C under setting [2] was 104 % of control; the T/C under setting [6] is 97 % of control; the T/C under setting [3] is 102 % of control.
Consider `O=c1c2ccccc2[nH]c(=S)n1C1CCCC1`, for which the T/C was 96 % of control under setting [8], 108 % of control under setting [9] and 100 % of control under setting [10].
Regarding `O=C(c1ccccc1)c1ccc2cc(O)ccc2c1`, the T/C is 102 % of control (endpoint: mean survival time, dose: 100.0 mg/kg/injection, schedule: Q01DX001 (ip), vehicle: saline with Tween-80); 94 % of control under setting [8]; 92 % of control (endpoint: mean survival time, dose: 200.0 mg/kg/injection, schedule: Q01DX001 (ip), vehicle: saline with Tween-80); 90 % of control under setting [9]; 96 % of control (endpoint: mean survival time, dose: 400.0 mg/kg/injection, schedule: Q01DX001 (ip), vehicle: saline with Tween-80); 86 % of control under setting [10].
For `Cc1ccc(S(=O)(=O)N/N=C2\CC3CCC2(C)C3(C)C)cc1` (stereo not given), the T/C reads like this: under setting [7], 96 % of control; under setting [4], 88 % of control; under setting [5], 100 % of control.
